Eight molecules from ChEMBL document CHEMBL5442175, “EUbOPEN Chemogenomics Library - PDSP Secondary Binding” (2024) can be followed below.

As usually defined, the pKi is −log10 of the Ki, conventionally taken in molar units. A higher pKi goes with a small Ki.

Structures are written as SMILES. pKi: −log10 of the molar value. Structures can show the parent of a compound that is named as a salt. A value given as a limit tells only on which side of the number the result lay.

For experiment [1], the target named is 5-hydroxytryptamine receptor 1D (Homo sapiens, UniProt P28221). Kind of experiment: PDSP Secondary Binding target: HTR1D - Compounds are tested at 10 uM concentration, plate are incubated at room temperature in the dark for 90 minutes. Reaction are stopped by vacuum filtration onto 0.3% polyethyleneimine soaked filter mats using Filtermate harvester. Scintillation cocktail is then melted onto microwave-dried filters on a hot plate and the radio activity is counted in Microbia counter.
5-hydroxytryptamine receptor 1D, sequence (P28221 whole entry): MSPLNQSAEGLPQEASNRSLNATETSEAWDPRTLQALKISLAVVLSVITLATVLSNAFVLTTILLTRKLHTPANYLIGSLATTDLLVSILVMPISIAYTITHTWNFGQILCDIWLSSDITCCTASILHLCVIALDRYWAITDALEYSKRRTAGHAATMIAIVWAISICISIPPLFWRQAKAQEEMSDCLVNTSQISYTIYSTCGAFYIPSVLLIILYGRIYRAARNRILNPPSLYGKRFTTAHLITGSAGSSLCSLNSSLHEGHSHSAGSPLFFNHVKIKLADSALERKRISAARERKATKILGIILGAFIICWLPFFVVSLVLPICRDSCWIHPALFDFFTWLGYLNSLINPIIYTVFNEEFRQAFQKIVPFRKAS

Experiment [2] addresses Beta-2 adrenergic receptor (Homo sapiens, UniProt P07550). Kind of experiment: PDSP Secondary Binding target: ADRB2 - Compounds are tested at 10 uM concentration, plate are incubated at room temperature in the dark for 90 minutes. Reaction are stopped by vacuum filtration onto 0.3% polyethyleneimine soaked filter mats using Filtermate harvester. Scintillation cocktail is then melted onto microwave-dried filters on a hot plate and the radio activity is counted in Microbia counter.

Experiment [3] has as its target 5-hydroxytryptamine receptor 1B (Homo sapiens, UniProt P28222). Kind of experiment: PDSP Secondary Binding target: HTR1B - Compounds are tested at 10 uM concentration, plate are incubated at room temperature in the dark for 90 minutes. Reaction are stopped by vacuum filtration onto 0.3% polyethyleneimine soaked filter mats using Filtermate harvester. Scintillation cocktail is then melted onto microwave-dried filters on a hot plate and the radio activity is counted in Microbia counter.

Experiment [4] has as its target Sodium-dependent dopamine transporter (Homo sapiens, UniProt Q01959). The experiment is described as follows: PDSP Secondary Binding target: SLC6A3 - Compounds are tested at 10 uM concentration, plate are incubated at room temperature in the dark for 90 minutes. Reaction are stopped by vacuum filtration onto 0.3% polyethyleneimine soaked filter mats using Filtermate harvester. Scintillation cocktail is then melted onto microwave-dried filters on a hot plate and the radio activity is counted in Microbia counter.

Experiment [5] deals with T1, Alpha-2C adrenergic receptor (Homo sapiens, UniProt P18825).
T1 sequence (P18825 whole entry): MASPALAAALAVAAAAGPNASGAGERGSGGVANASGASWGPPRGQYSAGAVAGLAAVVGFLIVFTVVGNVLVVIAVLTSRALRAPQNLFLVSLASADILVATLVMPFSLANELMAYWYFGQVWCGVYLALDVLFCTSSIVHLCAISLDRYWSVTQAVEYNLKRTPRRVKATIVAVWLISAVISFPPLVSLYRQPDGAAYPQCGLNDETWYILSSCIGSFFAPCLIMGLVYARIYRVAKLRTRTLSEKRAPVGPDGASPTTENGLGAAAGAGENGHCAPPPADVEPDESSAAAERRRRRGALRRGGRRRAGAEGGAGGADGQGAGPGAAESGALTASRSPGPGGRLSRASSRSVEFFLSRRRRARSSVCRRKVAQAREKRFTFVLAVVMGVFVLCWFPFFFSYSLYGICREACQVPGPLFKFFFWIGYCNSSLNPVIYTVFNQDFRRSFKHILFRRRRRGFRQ
Kind of experiment: PDSP Secondary Binding target: ADRA2C - Compounds are tested at 10 uM concentration, plate are incubated at room temperature in the dark for 90 minutes. Reaction are stopped by vacuum filtration onto 0.3% polyethyleneimine soaked filter mats using Filtermate harvester. Scintillation cocktail is then melted onto microwave-dried filters on a hot plate and the radio activity is counted in Microbia counter.

For experiment [6], the target named is T2, Muscarinic acetylcholine receptor M1 (Homo sapiens, UniProt P11229).
T2 sequence (P11229 whole entry): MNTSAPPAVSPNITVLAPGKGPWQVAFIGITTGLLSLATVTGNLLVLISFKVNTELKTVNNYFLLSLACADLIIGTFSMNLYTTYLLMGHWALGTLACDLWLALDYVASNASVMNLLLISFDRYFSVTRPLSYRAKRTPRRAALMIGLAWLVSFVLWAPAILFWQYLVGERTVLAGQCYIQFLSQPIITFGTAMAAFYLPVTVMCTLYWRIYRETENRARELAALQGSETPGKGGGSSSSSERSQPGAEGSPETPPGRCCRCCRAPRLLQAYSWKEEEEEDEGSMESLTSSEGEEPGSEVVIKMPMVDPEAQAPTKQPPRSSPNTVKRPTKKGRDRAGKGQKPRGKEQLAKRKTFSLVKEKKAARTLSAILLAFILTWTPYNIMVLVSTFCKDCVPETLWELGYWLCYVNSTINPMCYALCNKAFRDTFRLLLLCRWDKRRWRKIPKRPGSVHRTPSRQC
The experiment is described as follows: PDSP Secondary Binding target: CHRM1 - Compounds are tested at 10 uM concentration, plate are incubated at room temperature in the dark for 90 minutes. Reaction are stopped by vacuum filtration onto 0.3% polyethyleneimine soaked filter mats using Filtermate harvester. Scintillation cocktail is then melted onto microwave-dried filters on a hot plate and the radio activity is counted in Microbia counter.

The target in experiment [7] is 5-hydroxytryptamine receptor 2A (Homo sapiens, UniProt P28223). The experiment is described as follows: PDSP Secondary Binding target: HTR2A - Compounds are tested at 10 uM concentration, plate are incubated at room temperature in the dark for 90 minutes. Reaction are stopped by vacuum filtration onto 0.3% polyethyleneimine soaked filter mats using Filtermate harvester. Scintillation cocktail is then melted onto microwave-dried filters on a hot plate and the radio activity is counted in Microbia counter.
5-hydroxytryptamine receptor 2A, sequence (P28223 whole entry): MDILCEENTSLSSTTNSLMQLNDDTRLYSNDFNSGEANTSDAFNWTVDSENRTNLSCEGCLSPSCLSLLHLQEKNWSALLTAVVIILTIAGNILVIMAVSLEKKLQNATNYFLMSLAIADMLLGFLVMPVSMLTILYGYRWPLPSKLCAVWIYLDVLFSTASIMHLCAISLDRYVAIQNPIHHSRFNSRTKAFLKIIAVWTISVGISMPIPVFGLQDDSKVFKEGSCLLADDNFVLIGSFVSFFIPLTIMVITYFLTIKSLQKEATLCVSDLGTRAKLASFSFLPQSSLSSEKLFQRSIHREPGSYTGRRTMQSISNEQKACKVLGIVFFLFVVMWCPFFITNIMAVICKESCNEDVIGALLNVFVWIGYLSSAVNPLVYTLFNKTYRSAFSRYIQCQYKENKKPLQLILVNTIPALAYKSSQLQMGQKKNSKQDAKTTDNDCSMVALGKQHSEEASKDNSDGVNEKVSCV

Experiment [8] concerns the target T3, 5-hydroxytryptamine receptor 1A (Homo sapiens, UniProt P08908).
T3 sequence (P08908 whole entry): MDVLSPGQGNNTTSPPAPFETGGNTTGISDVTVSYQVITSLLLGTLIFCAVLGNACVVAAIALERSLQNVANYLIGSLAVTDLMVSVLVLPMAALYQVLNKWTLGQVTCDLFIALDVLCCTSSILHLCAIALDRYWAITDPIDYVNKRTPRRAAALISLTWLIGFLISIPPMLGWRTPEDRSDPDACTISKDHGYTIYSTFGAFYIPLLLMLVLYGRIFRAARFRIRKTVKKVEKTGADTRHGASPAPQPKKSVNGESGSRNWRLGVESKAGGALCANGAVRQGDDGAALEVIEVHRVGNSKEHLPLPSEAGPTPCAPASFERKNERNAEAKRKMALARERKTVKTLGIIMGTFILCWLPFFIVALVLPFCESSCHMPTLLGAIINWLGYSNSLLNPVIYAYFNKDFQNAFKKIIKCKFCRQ
The experiment is described as follows: PDSP Secondary Binding target: HTR1A - Compounds are tested at 10 uM concentration, plate are incubated at room temperature in the dark for 90 minutes. Reaction are stopped by vacuum filtration onto 0.3% polyethyleneimine soaked filter mats using Filtermate harvester. Scintillation cocktail is then melted onto microwave-dried filters on a hot plate and the radio activity is counted in Microbia counter.

The target of experiment [9] is D(1B) dopamine receptor (Homo sapiens, UniProt P21918). Kind of experiment: PDSP Secondary Binding target: DRD5 - Compounds are tested at 10 uM concentration, plate are incubated at room temperature in the dark for 90 minutes. Reaction are stopped by vacuum filtration onto 0.3% polyethyleneimine soaked filter mats using Filtermate harvester. Scintillation cocktail is then melted onto microwave-dried filters on a hot plate and the radio activity is counted in Microbia counter.
D(1B) dopamine receptor, sequence (P21918 whole entry): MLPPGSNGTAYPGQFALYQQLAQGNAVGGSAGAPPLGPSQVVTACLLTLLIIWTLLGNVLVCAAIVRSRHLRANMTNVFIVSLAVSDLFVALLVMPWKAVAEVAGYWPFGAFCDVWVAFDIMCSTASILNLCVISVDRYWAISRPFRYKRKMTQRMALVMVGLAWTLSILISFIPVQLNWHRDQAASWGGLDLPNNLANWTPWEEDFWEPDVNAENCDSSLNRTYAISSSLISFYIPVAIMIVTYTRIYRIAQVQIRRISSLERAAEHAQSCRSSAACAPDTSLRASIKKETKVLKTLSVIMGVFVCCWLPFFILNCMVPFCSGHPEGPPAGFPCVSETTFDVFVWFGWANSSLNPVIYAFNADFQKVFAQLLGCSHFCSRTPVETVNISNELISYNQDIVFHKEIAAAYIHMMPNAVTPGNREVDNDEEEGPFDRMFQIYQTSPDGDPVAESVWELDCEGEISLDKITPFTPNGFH

The target in experiment [10] is Kappa-type opioid receptor (Homo sapiens, UniProt P41145). The experiment is described as follows: PDSP Secondary Binding target: OPRK1 - Compounds are tested at 10 uM concentration, plate are incubated at room temperature in the dark for 90 minutes. Reaction are stopped by vacuum filtration onto 0.3% polyethyleneimine soaked filter mats using Filtermate harvester. Scintillation cocktail is then melted onto microwave-dried filters on a hot plate and the radio activity is counted in Microbia counter.
Kappa-type opioid receptor, sequence (P41145 whole entry): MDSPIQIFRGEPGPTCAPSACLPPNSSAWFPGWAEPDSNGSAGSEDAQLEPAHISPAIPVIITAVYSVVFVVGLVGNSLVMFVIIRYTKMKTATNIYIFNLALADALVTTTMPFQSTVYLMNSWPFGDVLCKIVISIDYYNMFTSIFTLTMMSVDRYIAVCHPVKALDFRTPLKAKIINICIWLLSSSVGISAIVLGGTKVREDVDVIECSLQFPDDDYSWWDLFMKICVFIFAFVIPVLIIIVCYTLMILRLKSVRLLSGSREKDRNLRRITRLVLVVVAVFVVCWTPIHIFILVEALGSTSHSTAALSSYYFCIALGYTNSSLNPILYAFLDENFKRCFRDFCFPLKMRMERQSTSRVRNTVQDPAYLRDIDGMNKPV

5-hydroxytryptamine receptor 1B, sequence (P28222 whole entry): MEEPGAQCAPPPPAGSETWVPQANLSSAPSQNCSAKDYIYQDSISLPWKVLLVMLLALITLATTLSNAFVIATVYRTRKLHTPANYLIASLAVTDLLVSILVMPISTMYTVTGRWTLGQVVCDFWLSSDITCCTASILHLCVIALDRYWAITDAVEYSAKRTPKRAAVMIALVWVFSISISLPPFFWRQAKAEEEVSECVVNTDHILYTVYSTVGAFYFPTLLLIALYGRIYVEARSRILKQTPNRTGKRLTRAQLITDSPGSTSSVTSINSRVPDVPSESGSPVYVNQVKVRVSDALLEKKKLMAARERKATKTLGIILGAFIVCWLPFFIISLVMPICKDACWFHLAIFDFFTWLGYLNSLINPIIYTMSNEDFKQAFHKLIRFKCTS
Sodium-dependent dopamine transporter, sequence (Q01959 whole entry): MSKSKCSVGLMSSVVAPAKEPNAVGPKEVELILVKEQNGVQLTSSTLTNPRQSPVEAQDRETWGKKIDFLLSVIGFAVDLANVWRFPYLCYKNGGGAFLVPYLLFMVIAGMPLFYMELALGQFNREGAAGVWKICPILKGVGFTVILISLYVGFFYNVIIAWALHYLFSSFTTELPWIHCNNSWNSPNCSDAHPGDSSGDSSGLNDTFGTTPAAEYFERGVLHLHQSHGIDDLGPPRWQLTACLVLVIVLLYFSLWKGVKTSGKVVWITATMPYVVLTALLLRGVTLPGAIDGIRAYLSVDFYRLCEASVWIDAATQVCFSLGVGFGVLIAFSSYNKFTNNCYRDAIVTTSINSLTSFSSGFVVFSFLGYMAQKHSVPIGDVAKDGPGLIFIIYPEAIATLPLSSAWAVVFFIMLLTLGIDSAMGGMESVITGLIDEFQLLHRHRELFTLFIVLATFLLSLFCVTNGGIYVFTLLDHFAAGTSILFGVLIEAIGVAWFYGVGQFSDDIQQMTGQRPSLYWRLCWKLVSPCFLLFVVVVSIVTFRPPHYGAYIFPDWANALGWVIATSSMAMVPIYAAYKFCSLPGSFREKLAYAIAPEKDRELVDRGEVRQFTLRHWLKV
Beta-2 adrenergic receptor, sequence (P07550 whole entry): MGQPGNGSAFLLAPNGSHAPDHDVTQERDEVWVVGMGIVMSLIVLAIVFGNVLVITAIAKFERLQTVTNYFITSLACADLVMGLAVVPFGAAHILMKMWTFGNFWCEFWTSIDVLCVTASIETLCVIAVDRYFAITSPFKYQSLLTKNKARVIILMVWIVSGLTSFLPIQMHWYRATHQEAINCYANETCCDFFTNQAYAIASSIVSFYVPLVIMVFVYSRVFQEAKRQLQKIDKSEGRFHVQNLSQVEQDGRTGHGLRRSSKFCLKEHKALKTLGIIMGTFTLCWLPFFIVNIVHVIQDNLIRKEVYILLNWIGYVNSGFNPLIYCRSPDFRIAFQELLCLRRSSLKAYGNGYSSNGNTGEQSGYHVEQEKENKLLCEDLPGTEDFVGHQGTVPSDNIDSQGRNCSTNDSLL

Take `N#Cc1ccc2[nH]cc(CCCCN3CCN(c4ccc5oc(C(N)=O)cc5c4)CC3)c2c1` [VILAZODONE HYDROCHLORIDE]: the pKi in experiment [1] is 6.43; in experiment [2] it was 5.60; in experiment [3], 5.90; in experiment [4], 7.66; in experiment [5] it was 5.86.
For `Cc1cn2cc(CC(=O)N3CCC4(CC3)CN(Cc3ccc(-n5nccn5)cc3Cl)C4)nc2s1`, the results for the pKi in experiment [2] and in experiment [6] were under 5.00 and 6.07, respectively.
`Clc1cccc(COc2cncc(N3CCNCC3)n2)c1`: the pKi was 7.16 in experiment [1]; 5.78 in experiment [3]; 6.98 in experiment [7]; 5.13 in [8]; 6.02 in experiment [6].
Regarding `CCc1cc2c(cc1CC)CC(NC[C@H](O)c1ccc(O)c3[nH]c(=O)ccc13)C2` [INDACATEROL], the values for the pKi in experiment [2], in experiment [4] and in experiment [7] were 6.97, 7.12 and 5.69, respectively.
Take `O=c1ccc2ccc(OCCCCN3CCN(c4cccc5sccc45)CC3)cc2[nH]1` [BREXPIPRAZOLE]: the pKi was 7.62 in experiment [1]; 6.01 in experiment [2]; 6.46 in experiment [9]; 7.37 in [3]; 6.44 in experiment [4]; 7.74 in experiment [7]. Moreover, the pKi in experiment [5] is 7.22; in experiment [8], 7.63.
In the case of `C[C@H](Cc1cc2c(c(C(N)=O)c1)N(CCCO)CC2)NCCOc1ccccc1OCC(F)(F)F` [SILODOSIN], the pKi in experiment [1] is 7.04; in experiment [2], 7.48; in [3] it was 6.43; in experiment [5] it was 6.44; in experiment [8], 7.33.
`S=C(NCCCc1c[nH]cn1)NCCCN(Cc1ccc(Cl)c(Cl)c1)c1ccc(Br)cn1`: the pKi in experiment [10] was 5.95; in experiment [9] it was 5.70; in experiment [3] it was 5.98; in [4], 6.53; in [7] it was 6.69; in [5], 6.27. This molecule also showed a pKi in [6] of 5.59.
Regarding `CN1CCN(c2ccc(Nc3c4ccccc4nc4ccccc34)cc2)CC1`, the pKi in [1] was 5.79; in experiment [2] it was 6.09; in experiment [4], 6.35; in [6] it was 6.14.
